PubChem BioAssay (NCI)
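The compound was tested at five concentrations on cells cultured in 96-well plates, with a 48-hour exposure period. TGI denotes the concentration required for complete inhibition of growth.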

Tests used:
Assay in all cases: NCI-60 cell line screen, 48 h
SNB-78 CNS = system: SNB-78 CNS
786-0 renal = system: 786-0 renal
HL-60(TB) leukemia = system: HL-60(TB) leukemia
UACC-257 melanoma = system: UACC-257 melanoma
M19-MEL melanoma = system: M19-MEL melanoma
SN12C renal = system: SN12C renal
SK-MEL-2 melanoma = system: SK-MEL-2 melanoma
A549 NSCLC = system: A549 NSCLC
SNB-19 CNS = system: SNB-19 CNS
OVCAR-5 ovarian = system: OVCAR-5 ovarian
OVCAR-3 ovarian = system: OVCAR-3 ovarian
COLO 205 colon = system: COLO 205 colon
K-562 leukemia = system: K-562 leukemia
NCI-H522 lung = system: NCI-H522 lung
HCC-2998 colon = system: HCC-2998 colon
HOP-62 NSCLC = system: HOP-62 NSCLC
HOP-92 NSCLC = system: HOP-92 NSCLC
SK-MEL-5 melanoma = system: SK-MEL-5 melanoma
SK-MEL-28 melanoma = system: SK-MEL-28 melanoma
A498 renal = system: A498 renal
U251 CNS = system: U251 CNS
RPMI-8226 leukemia = system: RPMI-8226 leukemia
MOLT-4 leukemia = system: MOLT-4 leukemia
IGROV1 ovarian = system: IGROV1 ovarian
OVCAR-4 ovarian = system: OVCAR-4 ovarian
LOX IMVI melanoma = system: LOX IMVI melanoma
UO-31 renal = system: UO-31 renal
ACHN renal = system: ACHN renal
M14 melanoma = system: M14 melanoma
RXF 393 renal = system: RXF 393 renal
LXFL 529 NSCLC = system: LXFL 529 NSCLC
CAKI-1 renal = system: CAKI-1 renal
HT29 colon = system: HT29 colon
CCRF-CEM leukemia = system: CCRF-CEM leukemia
NCI-H460 lung = system: NCI-H460 lung
UACC-62 melanoma = system: UACC-62 melanoma
NCI-H226 lung = system: NCI-H226 lung
HCT-116 colon = system: HCT-116 colon
KM12 colon = system: KM12 colon
SR leukemia = system: SR leukemia
SF-295 CNS = system: SF-295 CNS
DLD-1 colon = system: DLD-1 colon
DMS 273 small cell lung = system: DMS 273 small cell lung
OVCAR-8 ovarian = system: OVCAR-8 ovarian
SF-268 CNS = system: SF-268 CNS
SF-539 CNS = system: SF-539 CNS
SK-OV-3 ovarian = system: SK-OV-3 ovarian
NCI-H23 lung = system: NCI-H23 lung
MALME-3M melanoma = system: MALME-3M melanoma
SNB-75 CNS = system: SNB-75 CNS
SW-620 colon = system: SW-620 colon
EKVX NSCLC = system: EKVX NSCLC
TK-10 renal = system: TK-10 renal
MDA-N = system: MDA-N
NCI/ADR-RES ovarian = system: NCI/ADR-RES ovarian
HS 578T breast = system: HS 578T breast
BT-549 breast = system: BT-549 breast
MCF7 breast = system: MCF7 breast
MDA-MB-435 = system: MDA-MB-435
T-47D breast = system: T-47D breast
HCT-15 colon = system: HCT-15 colon
PC-3 prostate = system: PC-3 prostate
MDA-MB-231 breast = system: MDA-MB-231 breast
DU-145 prostate = system: DU-145 prostate

CC(=O)NC1=C(C)C(=O)c2c(nc3n2CCC3OC(=O)CCl)C1=O (configuration not stated)
TGI (SNB-78 CNS): 6.5 µM | TGI (786-0 renal): 21.6 µM | TGI (HL-60(TB) leukemia): 8.58 µM | TGI (UACC-257 melanoma): 25.5 µM | TGI (M19-MEL melanoma): 26.3 µM | TGI (SN12C renal): 24.1 µM | TGI (SK-MEL-2 melanoma): 10.2 µM | TGI (A549 NSCLC): 26 µM | TGI (SNB-19 CNS): 32.1 µM | TGI (OVCAR-5 ovarian): 25.5 µM | TGI (OVCAR-3 ovarian): 3.68 µM | TGI (COLO 205 colon): 34.7 µM | TGI (K-562 leukemia): 5.73 µM | TGI (NCI-H522 lung): 11.9 µM | TGI (HCC-2998 colon): 25.7 µM | TGI (HOP-62 NSCLC): 31.6 µM | TGI (HOP-92 NSCLC): 5.15 µM | TGI (SK-MEL-5 melanoma): 25.4 µM | TGI (SK-MEL-28 melanoma): 31.4 µM | TGI (A498 renal): 27.4 µM | TGI (U251 CNS): 11.8 µM | TGI (RPMI-8226 leukemia): > 100 µM | TGI (MOLT-4 leukemia): 4.48 µM | TGI (IGROV1 ovarian): 25.2 µM | TGI (OVCAR-4 ovarian): 4.19 µM | TGI (LOX IMVI melanoma): 16.8 µM | TGI (UO-31 renal): 31.9 µM | TGI (ACHN renal): 42.5 µM | TGI (M14 melanoma): 32.2 µM | TGI (RXF 393 renal): 18.1 µM | TGI (LXFL 529 NSCLC): 5.12 µM | TGI (CAKI-1 renal): 35.2 µM | TGI (HT29 colon): 30.3 µM | TGI (CCRF-CEM leukemia): 4.52 µM | TGI (NCI-H460 lung): 56.2 µM | TGI (UACC-62 melanoma): 6.33 µM | TGI (NCI-H226 lung): 7.01 µM | TGI (HCT-116 colon): 5.57 µM | TGI (KM12 colon): 29.5 µM | TGI (SR leukemia): > 100 µM | TGI (SF-295 CNS): 29.9 µM | TGI (DLD-1 colon): 29.7 µM | TGI (DMS 273 small cell lung): 33.6 µM | TGI (OVCAR-8 ovarian): 16.6 µM | TGI (SF-268 CNS): 21.9 µM | TGI (SF-539 CNS): 6.47 µM | TGI (SK-OV-3 ovarian): 37.9 µM | TGI (NCI-H23 lung): 26.1 µM | TGI (MALME-3M melanoma): 16.6 µM | TGI (SNB-75 CNS): 30.1 µM | TGI (SW-620 colon): 22.6 µM | TGI (EKVX NSCLC): 20.6 µM | TGI (TK-10 renal): 43.1 µM

C=C(C)C(CC=C(C)C)Cc1c(O)cc(OC)c2c1OC(c1ccc(O)cc1O)C(O)C2=O (configuration not stated)
TGI (MDA-N): 28.1 µM | TGI (786-0 renal): 32.3 µM | TGI (HL-60(TB) leukemia): > 100 µM | TGI (NCI/ADR-RES ovarian): 55.8 µM | TGI (UACC-257 melanoma): 32.1 µM | TGI (SN12C renal): 35.2 µM | TGI (SK-MEL-2 melanoma): 34.7 µM | TGI (A549 NSCLC): 39.4 µM | TGI (SNB-19 CNS): 29.3 µM | TGI (OVCAR-5 ovarian): 32.4 µM | TGI (OVCAR-3 ovarian): 34.8 µM | TGI (COLO 205 colon): 30 µM | TGI (K-562 leukemia): > 100 µM | TGI (NCI-H522 lung): 34.2 µM | TGI (HCC-2998 colon): 30.6 µM | TGI (HS 578T breast): 79.4 µM | TGI (HOP-62 NSCLC): 31 µM | TGI (HOP-92 NSCLC): 28 µM | TGI (SK-MEL-5 melanoma): 33.1 µM | TGI (BT-549 breast): 28.5 µM | TGI (MCF7 breast): 27 µM | TGI (SK-MEL-28 melanoma): 56.2 µM | TGI (A498 renal): 30.7 µM | TGI (U251 CNS): 27.6 µM | TGI (RPMI-8226 leukemia): > 100 µM | TGI (MOLT-4 leukemia): > 100 µM | TGI (MDA-MB-435): 35.9 µM | TGI (IGROV1 ovarian): 28.1 µM | TGI (OVCAR-4 ovarian): 38.4 µM | TGI (LOX IMVI melanoma): 36.1 µM | TGI (T-47D breast): 32.4 µM | TGI (UO-31 renal): 29.5 µM | TGI (HCT-15 colon): 31.1 µM | TGI (ACHN renal): 43.2 µM | TGI (M14 melanoma): 36.5 µM | TGI (RXF 393 renal): 43.6 µM | TGI (CAKI-1 renal): 26.6 µM | TGI (PC-3 prostate): 26.3 µM | TGI (HT29 colon): 38.2 µM | TGI (CCRF-CEM leukemia): > 100 µM | TGI (NCI-H460 lung): 33.9 µM | TGI (UACC-62 melanoma): 36.4 µM | TGI (NCI-H226 lung): 44.7 µM | TGI (MDA-MB-231 breast): 34.1 µM | TGI (DU-145 prostate): 32.4 µM | TGI (HCT-116 colon): 34.5 µM | TGI (KM12 colon): 24.6 µM | TGI (SR leukemia): > 100 µM | TGI (SF-295 CNS): 28.2 µM | TGI (OVCAR-8 ovarian): 31.2 µM | TGI (SF-268 CNS): 61.1 µM | TGI (SF-539 CNS): 31.4 µM | TGI (SK-OV-3 ovarian): 30.5 µM | TGI (NCI-H23 lung): 33.6 µM | TGI (MALME-3M melanoma): 31.8 µM | TGI (SNB-75 CNS): 31.5 µM | TGI (SW-620 colon): 30.3 µM | TGI (EKVX NSCLC): 31.1 µM | TGI (TK-10 renal): 38.4 µM
